Patent publication US10414774B2, “Compound useful for altering the levels of bile acids for the treatment of diabetes and cardiometabolc disease” (Merck Sharp & Dohme Corp., priority 2016, dated 2019)

molecular target: T1, Human CYP8B1 (Homo sapiens, UniProt Q9UNU6); assay: Human CYP8B1 Liver Microsome Assay; conditions: Human CYP8B1 IC50, human liver microsomes; substrate 7a-hydroxy-4-cholesten-3-one, NADPH; RapidFire MS detection of 7α,12α-dihydroxy-4-cholesten-3-one
T1 sequence (Q9UNU6 1-501): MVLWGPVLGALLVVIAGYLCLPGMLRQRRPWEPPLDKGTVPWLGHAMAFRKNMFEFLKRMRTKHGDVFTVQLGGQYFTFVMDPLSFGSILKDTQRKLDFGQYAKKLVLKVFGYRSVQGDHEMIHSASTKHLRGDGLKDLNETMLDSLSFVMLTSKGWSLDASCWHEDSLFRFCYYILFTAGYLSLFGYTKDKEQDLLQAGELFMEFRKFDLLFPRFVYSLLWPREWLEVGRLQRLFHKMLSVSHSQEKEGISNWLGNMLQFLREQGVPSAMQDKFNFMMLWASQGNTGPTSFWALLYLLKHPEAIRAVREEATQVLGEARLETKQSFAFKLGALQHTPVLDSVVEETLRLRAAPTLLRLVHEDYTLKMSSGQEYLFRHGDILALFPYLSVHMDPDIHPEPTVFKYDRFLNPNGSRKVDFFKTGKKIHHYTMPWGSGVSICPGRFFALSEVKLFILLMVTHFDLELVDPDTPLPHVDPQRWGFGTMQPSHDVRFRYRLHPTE

IC50	SMILES
774 nM	Cc1nc2ccc(F)c(F)c2c(N2CCC(C(=O)N3CCn4c(nnc4C(F)(F)F)C3)CC2)c1C#N [Example 51, 5,6-difluoro-2-methyl-4-(4-(3-(trifluoromethyl)-5,6,7,8-tetrahydro-[1,2,4]triazolo[4,3-a]pyrazine-7-carbonyl)piperidin-1-yl)quinoline-3-carbontrile]
2.1 nM	CC[C@@H]1CN(c2c(C#N)cnc3c(F)c(OC)ccc23)CC[C@@H]1C(=O)N1CCn2c(nnc2C(F)(F)F)C1 [Example 74b, 4-[(3S,4S)-3-ethyl-4-{[3-(trifluoromethyl)-5,6-dihydro[1,2,4]triazolo[4,3-a]pyrazin-7(8H)-yl]carbonyl}piperidin-1-yl]-8-fluoro-7-methoxyquinoline-3-carbonitrile]
2.1 nM	N#Cc1cnc2ccc(Cl)cc2c1N1CCC(C(=O)N2CCn3c(nnc3C(F)(F)F)C2)C(C(F)(F)F)C1 (centres unmarked) [Example 118, 6-chloro-4-[3-(trifluoromethyl)-4-{[3-(trifluoromethyl)-5,6-dihydro[1,2,4]triazolo[4,3-a]pyrazin-7(8H)-yl]carbonyl}piperidin-1-yl]quinoline-3-carbonitrile]
14 nM	CC1(C(=O)N2CCn3c(nnc3C(F)(F)F)C2)CCN(c2c(C#N)cnc3ccc(Cl)cc23)CC1 [Example 121, 6-chloro-4-(4-methyl-4-{[3-(trifluoromethyl)-5,6-dihydro[1,2,4]triazolo[4,3-a]pyrazin-7(8H)-yl]carbonyl}piperidin-1-yl)quinoline-3-carbonitrile]
0.43 nM	N#Cc1cnc2cc(OCC3CC3)ccc2c1N1CCC(C(=O)N2CCn3c(nnc3C(F)(F)F)C2)CC1 [Example 68, 7-(cyclopropylmethoxy)-4-(4-{[3-(trifluoromethyl)-5,6-dihydro[1,2,4]triazolo[4,3-a]pyrazin-7(8H)-yl]carbonyl}piperidin-1-yl)quinoline-3-carbonitrile]
2.6 nM	C[C@@H]1CN(c2c(C#N)cnc3cnc(F)cc23)CC[C@@H]1C(=O)N1CCn2c(nnc2C(F)(F)F)C1 [Example 31, 6-fluoro-4-[(3S,4S)-3-methyl-4-{[3-(trifluoromethyl)-5,6-dihydro[1,2,4]triazolo[4,3-a]pyrazin-7(8H)-yl]carbonyl}piperidin-1-yl]-1,7-naphthyridine-3-carbonitrile]
68 nM	COc1ccc2ncc(C#N)c(N3CCC(C(=O)N4CCn5c(nnc5C(F)(F)F)C4)CC3)c2c1 [Example 46, 6-methoxy-4-(4-(3-(trifluoromethyl)-5,6,7,8-tetrahydro-[1,2,4]triazolo[4,3-a]pyrazine-7-carbonyl)piperidin-1-yl)quinoline-3-carbonitrile]
1320 nM	N#Cc1cnc2ccc(Cl)cc2c1N1CC[C@@H](C(=O)N2CCn3c(nnc3C(F)(F)F)C2)[C@@H](C2CC2)C1 [Example 76a, 6-chloro-4-[(3R,4R)-3-cyclopropyl-4-{[3-(trifluoromethyl)-5,6-dihydro[1,2,4]triazolo[4,3-a]pyrazin-7(8H)-yl]carbonyl}piperidin-1-yl]quinoline-3-carbonitrile]
8.6 nM	Cc1nc2ccc(Cl)cc2c(N2CC[C@H](C(=O)N3CCn4nccc4C3)[C@H](C)C2)c1C#N [Example 96, 6-chloro-4-[(3S,4S)-4-(6,7-dihydropyrazolo[1,5-a]pyrazin-5(4H)-ylcarbonyl)-3-methylpiperidin-1-yl]-2-methylquinoline-3-carbonitrile]
1730 nM	Cc1nc2c(F)cc(F)cc2c(N2CCC(C(=O)N3CCn4c(nnc4C(F)(F)F)C3)CC2)c1C#N [Example 49, 6,8-difluoro-2-methyl-4-(4-(3-(trifluoromethyl)-5,6,7,8-tetrahydro-[1,2,4]triazolo[4,3-a]pyrazine-7-carbonyl)piperidin-1-yl)quinoline-3-carbonitrile]
0.35 nM	C[C@@H]1CN(c2c(C#N)cnc3cc(OCC4CC4)ccc23)CC[C@@H]1C(=O)N1CCn2c(nnc2C(F)(F)F)C1 [Example 100, 7-(cyclopropylmethoxy)-4-[(3S,4S)-3-methyl-4-{[3-(trifluoromethyl)-5,6-dihydro[1,2,4]triazolo[4,3-a]pyrazin-7(8H)-yl]carbonyl}piperidin-1-yl]quinoline-3-carbonitrile]
